Our source for the IC50 values is patent US12637454B2, “Heterocyclic monoacylglycerol lipase (MAGL) inhibitors” (Hoffmann-La Roche Inc., priority 2019, dated 2026).

In this test the target is T1, MAGL (Homo sapiens, UniProt Q99685).
T1 sequence (Q99685 1-303): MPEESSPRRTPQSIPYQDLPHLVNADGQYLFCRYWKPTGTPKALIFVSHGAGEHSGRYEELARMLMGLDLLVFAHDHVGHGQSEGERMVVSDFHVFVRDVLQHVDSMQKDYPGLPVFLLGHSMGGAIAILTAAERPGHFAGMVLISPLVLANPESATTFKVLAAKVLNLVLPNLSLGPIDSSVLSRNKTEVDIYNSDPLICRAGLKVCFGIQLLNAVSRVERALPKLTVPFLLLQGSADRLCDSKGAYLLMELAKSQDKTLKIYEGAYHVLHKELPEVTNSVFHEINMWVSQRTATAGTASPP
Put plainly: 2-AG assay (MAGL inhibitory activity, hydrolysis of 2-arachidonoylglycerol followed by mass spectrometry). In kind it is biochemical. The note with it: 50 pM MAGL, 8 μM 2-arachidonoylglycerol, 15 min preincubation, 30 min incubation at RT. As for the experimental part: Compounds were profiled for MAGL inhibitory activity by determining the enzymatic activity by following the hydrolysis of the natural substrate 2-arachidonoylglycerol (2-AG) resulting in arachidonic acid, which can be followed by mass spectrometry. This assay is hereinafter abbreviated “2-AG assay”.
The 2-AG assay was carried out in 384 well assay plates (PP, Greiner Cat #784201) in a total volume of 20 μL. Compound dilutions were made in 100% DMSO (VWR Chemicals 23500.297) in a polypropylene plate in 3-fold dilution steps to give a final concentration range in the assay from 12.5 μM to 0.8 pM. 0.25 μL compound dilutions (100% DMSO) were added to 9 μL MAGL in assay buffer (50 mM TRIS (GIBCO, 15567-027), 1 mM EDTA (Fluka, 03690-100 mL), 0.01% (v/v) Tween. After shaking, the plate was incubated for 15 min at RT. To start the reaction, 10 μL 2-arachidonoylglycerol in assay buffer was added. The final concentrations in the assay was 50 pM MAGL and 8 μM 2-arachidonoylglyerol. After shaking and 30 min incubation at RT, the reaction was quenched by the addition of […] of ACN containing 4 μM of d8-arachidonic acid. The amount of arachidonic acid was traced by an online SPE system (Agilent Rapidfire) coupled to a triple quadrupole mass spectrometer (Agilent 6460). A C18 SPE cartridge (G9205A) was used in an ACN/water liquid setup. The mass spectrometer was operated in negative electrospray mode following the mass transitions 303.1→259.1 for arachidonic acid and 311.1→267.0 for d8-arachidonic acid. The activity of the compounds was calculated based on the ratio of intensities [arachidonic acid/d8-arachidonic acid].
The IC50 is the concentration at which inhibition is half-maximal. A higher IC50 goes with weaker potency. Compound “4-[(E)-2-[3-[(7R,9aR)-7-(4-Chlorophenyl)-1,3,4,6,7,8,9,9a-octahydropyrido[1,2-a]pyrazine-2-carbonyl]-2-bromo-phenyl]vinyl]-N-methyl-benzamide and 3-[(E)-2-[4-[(7R,9aR)-7-(4-chlorophenyl)-1,3,4,6,7,8,9,9a-octahydropyrido[1,2-a]pyrazine-2-carbonyl]phenyl]vinyl]-2-bromo-N-methyl-benzamide [Example 31]” showed an IC50 of 3.72 nM.

Compound `COc1cccc(C(=O)N2CCN3C[C@@](O)(CC(C)C)CC[C@@H]3C2)c1Cl` (racemic) [Example 24, (2-Chloro-3-methoxyphenyl)-[rac-(7R,9aS)-7-hydroxy-7-(2-methylpropyl)-3,4,6,8,9,9a-hexahydro-1H-pyrido[1,2-a]pyrazin-2-yl]methanone] yielded a half-maximal inhibitory concentration (IC50) of 626 nM.

As to `COc1cccc(C(=O)N2CCN3C[C@@](O)(C4CCCC4)CC[C@@H]3C2)c1Cl` (racemic) [Example 25, (2-chloro-3-methoxyphenyl)-[rac-(7R,9aS)-7-cyclopentyl-7-hydroxy-3,4,6,8,9,9a-hexahydro-1H-pyrido[1,2-a]pyrazin-2-yl]methanone], the IC50 is 548 nM.

As to `COc1cccc(C(=O)N2CCN3C[C@@](O)(C(F)(F)F)CC[C@@H]3C2)c1Cl` (racemic) [Example 26, (2-Chloro-3-methoxyphenyl)-[rac-(7R,9aR)-7-hydroxy-7-(trifluoromethyl)-3,4,6,8,9,9a-hexahydro-1H-pyrido[1,2-a]pyrazin-2-yl]methanone], the IC50 was 678 nM. Then `CC1(O)CCN(c2cccc(C(=O)N3CCN4C[C@@](O)(c5ccc(Cl)cc5)CC[C@@H]4C3)c2Cl)C1` (mixture of isomers) [Example 50, [2-chloro-3-(3-hydroxy-3-methylpyrrolidin-1-yl)phenyl]-[rac-(7R,9aS)-7-(4-chlorophenyl)-7-hydroxy-3,4,6,8,9,9a-hexahydro-1H-pyrido[1,2-a]pyrazin-2-yl]methanone], with 72.4 nM; and `COc1cccc(C(=O)N2CCN3CC(O)(c4ccc(C(F)(F)F)nc4)CCC3C2)c1Cl` (racemic) [Example 71, (2-chloro-3-methoxyphenyl)-[rac-(7R,9aR)-7-hydroxy-7-[6-(trifluoromethyl)pyridin-3-yl]-3,4,6,8,9,9a-hexahydro-1H-pyrido[1,2-a]pyrazin-2-yl]methanone], with 278 nM. In the case of `COc1cccc(C(=O)N2CCN3CC(O)(c4ccc(C(F)(F)F)nc4)CCC3C2)c1Cl` (racemic) [Example 72, (2-chloro-3-methoxyphenyl)-[rac-(7R,9aS)-7-hydroxy-7-[6-(trifluoromethyl)pyridin-3-yl]-3,4,6,8,9,9a-hexahydro-1H-pyrido[1,2-a]pyrazin-2-yl]methanone], the concentration for half-maximal inhibition (IC50) amounted to 3490 nM. In the case of `O=C(c1cccc(OC(F)F)c1Cl)N1CCN2C[C@@](O)(c3ccc(C(F)(F)F)cn3)CC[C@@H]2C1` (stereo in doubt) [Example 37, [(7R,9aR)-7-hydroxy-7-[5-(trifluoromethyl)pyridin-2-yl]-3,4,6,8,9,9a-hexahydro-1H-pyrido[1,2-a]pyrazin-2-yl]-[2-chloro-3-(difluoromethoxy)phenyl]methanone] it was 898 nM. Then `O=C(c1cccc(OC(F)F)c1Cl)N1CCN2C[C@](O)(c3ccc(C(F)(F)F)cn3)CC[C@H]2C1` (stereo in doubt) [Example 38, [(7S,9aS)-7-hydroxy-7-[5-(trifluoromethyl)pyridin-2-yl]-3,4,6,8,9,9a-hexahydro-1H-pyrido[1,2-a]pyrazin-2-yl]-[2-chloro-3-(difluoromethoxy)phenyl]methanone], with 327 nM; and `COc1cccc(C(=O)N2CCN3C[C@@](O)(c4ccc(F)c(Cl)c4)CC[C@@H]3C2)c1Cl` [Example 1, [(7S,9aR)-7-(3-Chloro-4-fluorophenyl)-7-hydroxy-3,4,6,8,9,9a-hexahydro-1H-pyrido[1,2-a]pyrazin-2-yl]-(2-chloro-3-methoxyphenyl)methanone], with 4.48 nM. Then `COc1cccc(C(=O)N2CCN3C[C@](O)(c4ccc(F)c(Cl)c4)CC[C@H]3C2)c1Cl` [Example 2, [(7R,9aS)-7-(3-chloro-4-fluorophenyl)-7-hydroxy-3,4,6,8,9,9a-hexahydro-1H-pyrido[1,2-a]pyrazin-2-yl]-(2-chloro-3-methoxyphenyl)methanone], with 18.8 nM. For the compound `O=C(c1cccc(-c2ccn[nH]2)c1Cl)N1CCN2C[C@@](O)(c3ccc(Cl)cc3)CC[C@@H]2C1` [Example 3, [(7S,9aR)-7-(4-chlorophenyl)-7-hydroxy-3,4,6,8,9,9a-hexahydro-1H-pyrido[1,2-a]pyrazin-2-yl]-[2-chloro-3-(1H-pyrazol-5-yl)phenyl]methanone], the half-maximal inhibitory concentration (IC50) was 4.31 nM. In turn, `O=C(c1cccc(-c2ccn[nH]2)c1Cl)N1CCN2C[C@](O)(c3ccc(Cl)cc3)CC[C@H]2C1` [Example 4, [(7R,9aS)-7-(4-chlorophenyl)-7-hydroxy-3,4,6,8,9,9a-hexahydro-1H-pyrido[1,2-a]pyrazin-2-yl]-[2-chloro-3-(1H-pyrazol-5-yl)phenyl]methanone] registered a half-maximal inhibitory concentration (IC50) of 76.3 nM. As to `O=C(c1cccc(-c2c[nH]nc2F)c1Cl)N1CCN2C[C@@](O)(c3ccc(Cl)cc3)CC[C@@H]2C1` [Example 5, [(7S,9aR)-7-(4-chlorophenyl)-7-hydroxy-3,4,6,8,9,9a-hexahydro-1H-pyrido[1,2-a]pyrazin-2-yl]-[2-chloro-3-(3-fluoro-1H-pyrazol-4-yl)phenyl]methanone], the IC50 was 1.95 nM. Then `O=C(c1cccc(-c2c[nH]nc2F)c1Cl)N1CCN2C[C@](O)(c3ccc(Cl)cc3)CC[C@H]2C1` [Example 6, [(7R,9aS)-7-(4-chloropheny1)-7-hydroxy-3,4,6,8,9,9a-hexahydro-1H-pyrido[1,2-a]pyrazin-2-yl]-[2-chloro-3-(3-fluoro-1H-pyrazol-4-yl)phenyl]methanone], with 17.2 nM. In the case of `COc1ccc(C(=O)N2CCN3C[C@@](O)(c4ccc(Cl)cc4)CC[C@@H]3C2)c(Cl)n1` [Example 7, [(7S,9aR)-7-(4-chlorophenyl)-7-hydroxy-3,4,6,8,9,9a-hexahydro-1H-pyrido[1,2-a]pyrazin-2-yl]-(2-chloro-6-methoxypyridin-3-yl)methanone] it was 398 nM. In the case of `Cc1nc(N)ccc1C(=O)N1CCN2C[C@@](O)(c3ccc(Cl)cc3)CC[C@@H]2C1` [Example 8, [(7S,9aR)-7-(4-chlorophenyl)-7-hydroxy-3,4,6,8,9,9a-hexahydro-1H-pyrido[1,2-a]pyrazin-2-yl]-(6-amino-2-methylpyridin-3-yl)methanone] it was 2960 nM; in that of `O=C(c1cccc(N2CC(O)C2)c1Cl)N1CCN2C[C@@](O)(c3ccc(Cl)cc3)CC[C@@H]2C1` [Example 9, [(7S,9aR)-7-(4-chlorophenyl)-7-hydroxy-3,4,6,8,9,9a-hexahydro-1H-pyrido[1,2-a]pyrazin-2-yl]-[2-chloro-3-(3-hydroxyazetidin-1-yl)phenyl]methanone], 16.2 nM. With `O=C(c1cccc(N2CC(O)C2)c1F)N1CCN2C[C@@](O)(c3ccc(Cl)cc3)CC[C@@H]2C1` [Example 10], the IC50 was determined as 58.2 nM. Then `Cn1c(Cl)c(C(=O)N2CCN3C[C@](O)(c4ccc(Cl)cc4)CC[C@H]3C2)ccc1=O` [Example 11, 5-[(7R,9aS)-7-(4-chlorophenyl)-7-hydroxy-3,4,6,8,9,9a-hexahydro-1H-pyrido[1,2-a]pyrazine-2-carbonyl]-6-chloro-l-methylpyridin-2-one], with 775 nM; and `Cn1c(Cl)c(C(=O)N2CCN3C[C@@](O)(c4ccc(Cl)cc4)CC[C@@H]3C2)ccc1=O` [Example 12, 5-[(7S,9aR)-7-(4-chlorophenyl)-7-hydroxy-3,4,6,8,9,9a-hexahydro-1H-pyrido[1,2-a]pyrazine-2-carbonyl]-6-chloro-l-methylpyridin-2-one], with 4460 nM. Then `O=C(c1cccc(N2CCOC2=O)c1Cl)N1CCN2C[C@@](O)(c3ccc(Cl)cc3)CC[C@@H]2C1` [Example 13, 3-[3-[(7S,9aR)-7-(4-chlorophenyl)-7-hydroxy-3,4,6,8,9,9a-hexahydro-1H-pyrido[1,2-a]pyrazine-2-carbonyl]-2-chlorophenyl]-1,3-oxazolidin-2-one], with 1190 nM. Then `O=C(c1cccc(N2CCNC2=O)c1Cl)N1CCN2C[C@@](O)(c3ccc(Cl)cc3)CC[C@@H]2C1` [Example 14, 1-[3-[(7S,9aR)-7-(4-chlorophenyl)-7-hydroxy-3,4,6,8,9,9a-hexahydro-1H-pyrido[1,2-a]pyrazine-2-carbonyl]-2-chlorophenyl]imidazolidin-2-one], with 2160 nM.
